Source: PubChem BioAssay AID256 (DTP/NCI, 2004)
“And” between values parts separate entries of the source, which are not always exact repeats. Identical values can stand only once. Toxic doses and inconclusive results are not listed.

System: CD2F1 mice, L1210 leukemia ip, survival T/C
Test: NCI In Vivo Anticancer Drug Screen. Data for tumor model L1210 Leukemia (intraperitoneal) in CD2F1 (CDF1) mice
Details: higher = longer survival
Method in brief: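 Transplantable tumor in mice; compound-treated vs vehicle-treated groups. Read-out = treated/control ratio of the measured endpoint.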

[1] = endpoint: mean survival time, dose: 50.0 mg/kg/injection, schedule: Q01DX009 (ip), vehicle: saline with Tween-80
[2] = endpoint: mean survival time, dose: 100.0 mg/kg/injection, schedule: Q01DX009 (ip), vehicle: saline with Tween-80
[3] = endpoint: mean survival time, dose: 100.0 mg/kg/injection, schedule: Q04DX003 (ip), vehicle: saline with Tween-80
[4] = endpoint: mean survival time, dose: 200.0 mg/kg/injection, schedule: Q04DX003 (ip), vehicle: saline with Tween-80
[5] = endpoint: mean survival time, dose: 400.0 mg/kg/injection, schedule: Q04DX003 (ip), vehicle: saline with Tween-80
[6] = endpoint: mean survival time, dose: 200.0 mg/kg/injection, schedule: Q01DX009 (ip), vehicle: saline with Tween-80
[7] = endpoint: mean survival time, dose: 100.0 mg/kg/injection, schedule: Q04DX002 (ip), vehicle: saline with Tween-80
[8] = endpoint: mean survival time, dose: 200.0 mg/kg/injection, schedule: Q04DX002 (ip), vehicle: saline with Tween-80
[9] = endpoint: mean survival time, dose: 400.0 mg/kg/injection, schedule: Q04DX002 (ip), vehicle: saline with Tween-80

## COc1ccc(S(=O)(=O)N/N=C/C(=O)O)cc1
endpoint: mean survival time, dose: 6.25 mg/kg/injection, schedule: Q01DX009 (ip), vehicle: saline with Tween-80
  T/C: 115 % of control
endpoint: mean survival time, dose: 12.5 mg/kg/injection, schedule: Q01DX009 (ip), vehicle: alkali diluted with water
  T/C: 114 % of control
endpoint: mean survival time, dose: 12.5 mg/kg/injection, schedule: Q01DX009 (ip), vehicle: saline with Tween-80
  T/C: 121 % of control
endpoint: mean survival time, dose: 12.5 mg/kg/injection, schedule: Q04DX003 (ip), vehicle: other
  T/C: 109 % of control
endpoint: mean survival time, dose: 25.0 mg/kg/injection, schedule: Q01DX009 (ip), vehicle: alkali diluted with water
  T/C: 116 % of control
endpoint: mean survival time, dose: 25.0 mg/kg/injection, schedule: Q04DX003 (ip), vehicle: other
  T/C: 117 % of control
endpoint: mean survival time, dose: 50.0 mg/kg/injection, schedule: Q01DX009 (ip), vehicle: alkali diluted with water
  T/C: 124 % of control
[1]
  T/C: 163 % of control
endpoint: mean survival time, dose: 50.0 mg/kg/injection, schedule: Q04DX003 (ip), vehicle: other
  T/C: 124 % of control
[2]
  T/C: 151 % of control
endpoint: mean survival time, dose: 100.0 mg/kg/injection, schedule: Q04DX003 (ip), vehicle: other
  T/C: 154 % of control
endpoint: mean survival time, dose: 200.0 mg/kg/injection, schedule: Q01DX009 (ip), vehicle: alkali diluted with water
  T/C: 153 % of control
endpoint: mean survival time, dose: 200.0 mg/kg/injection, schedule: Q04DX003 (ip), vehicle: other
  T/C: 155 % of control and 163 % of control and 203 % of control
endpoint: median survival time, dose: 12.5 mg/kg/injection, schedule: Q01DX009 (oral), vehicle: saline with Tween-80
  T/C: 105 % of control
endpoint: median survival time, dose: 25.0 mg/kg/injection, schedule: Q01DX009 (oral), vehicle: saline with Tween-80
  T/C: 105 % of control
endpoint: median survival time, dose: 50.0 mg/kg/injection, schedule: Q01DX009 (oral), vehicle: saline with Tween-80
  T/C: 103 % of control
endpoint: median survival time, dose: 100.0 mg/kg/injection, schedule: Q01DX009 (oral), vehicle: saline with Tween-80
  T/C: 95 % of control
endpoint: median survival time, dose: 200.0 mg/kg/injection, schedule: Q01DX009 (oral), vehicle: saline with Tween-80
  T/C: 98 % of control
endpoint: median survival time, dose: 400.0 mg/kg/injection, schedule: Q01DX009 (oral), vehicle: saline with Tween-80
  T/C: 105 % of control

## O=C(COc1ccc(Cl)c(Cl)c1)Nc1cccc(C(=O)CCl)c1
[3]
  T/C: 95 % of control
[4]
  T/C: 101 % of control
[5]
  T/C: 103 % of control

## Cc1cccc(/C=N\OCc2ccccc2)n1
[2]
  T/C: 98 % of control
[6]
  T/C: 113 % of control

## O=C(O)/C=C/C(=O)Nc1ccc(Cl)cc1
[2]
  T/C: 104 % of control
[6]
  T/C: 89 % of control

## Nc1ncnc2c1ccn2C1OC(CO)CC1O (centres undefined)
endpoint: mean survival time, dose: 75.0 mg/kg/injection, schedule: Q01DX001 (ip), vehicle: saline
  T/C: 103 % of control
endpoint: mean survival time, dose: 150.0 mg/kg/injection, schedule: Q01DX001 (ip), vehicle: saline
  T/C: 100 % of control
endpoint: mean survival time, dose: 300.0 mg/kg/injection, schedule: Q01DX001 (ip), vehicle: saline
  T/C: 109 % of control

## NNC(=O)CCc1ccccc1Br
[1]
  T/C: 92 % of control and 102 % of control
[2]
  T/C: 102 % of control and 103 % of control
[3]
  T/C: 100 % of control
[6]
  T/C: 93 % of control
[4]
  T/C: 97 % of control

## N#CCCOP(=O)(N1CC1)N1CC1
endpoint: mean survival time, dose: 3.9 mg/kg/injection, schedule: Q01DX001 (ip), vehicle: Klucel (hydroxypropylcellulose) (HPC)
  T/C: 100 % of control
endpoint: mean survival time, dose: 4.0 mg/kg/injection, schedule: Q01DX009 (ip), vehicle: water
  T/C: 104 % of control
endpoint: mean survival time, dose: 7.8 mg/kg/injection, schedule: Q01DX001 (ip), vehicle: Klucel (hydroxypropylcellulose) (HPC)
  T/C: 100 % of control
endpoint: mean survival time, dose: 8.0 mg/kg/injection, schedule: Q01DX009 (ip), vehicle: water
  T/C: 114 % of control
endpoint: mean survival time, dose: 15.6 mg/kg/injection, schedule: Q01DX001 (ip), vehicle: Klucel (hydroxypropylcellulose) (HPC)
  T/C: 109 % of control
endpoint: mean survival time, dose: 31.2 mg/kg/injection, schedule: Q01DX001 (ip), vehicle: Klucel (hydroxypropylcellulose) (HPC)
  T/C: 122 % of control
endpoint: mean survival time, dose: 62.5 mg/kg/injection, schedule: Q01DX001 (ip), vehicle: Klucel (hydroxypropylcellulose) (HPC)
  T/C: 121 % of control
endpoint: mean survival time, dose: 64.0 mg/kg/injection, schedule: Q01DX009 (ip), vehicle: water
  T/C: 90 % of control

## NC(=O)OCCc1c2ccccc2[n+]([O-])c2ccccc12
endpoint: mean survival time, dose: 50.0 mg/kg/injection, schedule: Q04DX002 (ip), vehicle: saline with Tween-80
  T/C: 98 % of control
[7]
  T/C: 95 % of control
[8]
  T/C: 98 % of control
[9]
  T/C: 95 % of control

## O=C([O][Sb]([O]C(=O)C(Cl)(Cl)Cl)([c]1ccccc1)([c]1ccccc1)[c]1ccccc1)C(Cl)(Cl)Cl
[3]
  T/C: 100 % of control
[4]
  T/C: 93 % of control
[5]
  T/C: 93 % of control

## CC(=O)c1ccc(Br)c([N+](=O)[O-])c1
endpoint: mean survival time, dose: 100.0 mg/kg/injection, schedule: Q01DX009 (ip), vehicle: Klucel (hydroxypropylcellulose) (HPC)
  T/C: 102 % of control
endpoint: mean survival time, dose: 100.0 mg/kg/injection, schedule: Q04DX003 (ip), vehicle: Klucel (hydroxypropylcellulose) (HPC)
  T/C: 96 % of control
endpoint: mean survival time, dose: 200.0 mg/kg/injection, schedule: Q01DX009 (ip), vehicle: Klucel (hydroxypropylcellulose) (HPC)
  T/C: 98 % of control
endpoint: mean survival time, dose: 200.0 mg/kg/injection, schedule: Q04DX003 (ip), vehicle: Klucel (hydroxypropylcellulose) (HPC)
  T/C: 100 % of control
endpoint: mean survival time, dose: 400.0 mg/kg/injection, schedule: Q01DX009 (ip), vehicle: Klucel (hydroxypropylcellulose) (HPC)
  T/C: 102 % of control
endpoint: mean survival time, dose: 400.0 mg/kg/injection, schedule: Q04DX003 (ip), vehicle: Klucel (hydroxypropylcellulose) (HPC)
  T/C: 105 % of control

## S=C(S)c1[nH]c(=S)[nH]c(=S)c1Cl
[3]
  T/C: 96 % of control
[4]
  T/C: 101 % of control
[5]
  T/C: 87 % of control

## Clc1ccc(SSc2ccc(Cl)cc2Cl)c(Cl)c1
[7]
  T/C: 90 % of control
[8]
  T/C: 104 % of control
[9]
  T/C: 95 % of control

## [NH-]C(CCC(N)=O)C(=O)O.[NH-]C(CCC(N)=O)C(=O)O.[Zn+2] (centres undefined)
endpoint: median survival time, dose: 6.25 mg/kg/injection, schedule: Q01DX009 (ip), vehicle: saline with Tween-80
  T/C: 102 % of control
endpoint: median survival time, dose: 12.5 mg/kg/injection, schedule: Q01DX009 (ip), vehicle: saline with Tween-80
  T/C: 101 % of control
endpoint: median survival time, dose: 25.0 mg/kg/injection, schedule: Q01DX009 (ip), vehicle: saline with Tween-80
  T/C: 96 % of control
endpoint: median survival time, dose: 50.0 mg/kg/injection, schedule: Q01DX009 (ip), vehicle: saline with Tween-80
  T/C: 101 % of control

## O=C1C(NCCO)=C(N2CC2)C(=O)C(NCCO)=C1N1CC1
endpoint: median survival time, dose: 0.06 mg/kg/injection, schedule: Q01DX009 (ip), vehicle: saline
  T/C: 122 % of control
endpoint: median survival time, dose: 0.25 mg/kg/injection, schedule: Q01DX009 (ip), vehicle: saline
  T/C: 153 % of control
endpoint: median survival time, dose: 0.5 mg/kg/injection, schedule: Q01DX009 (ip), vehicle: saline
  T/C: 171 % of control
endpoint: median survival time, dose: 1.0 mg/kg/injection, schedule: Q01DX009 (ip), vehicle: saline
  T/C: 220 % of control
endpoint: median survival time, dose: 2.0 mg/kg/injection, schedule: Q01DX009 (ip), vehicle: saline
  T/C: 86 % of control

## CC1=CC(=O)C(C(C)C)=CC1=O
endpoint: mean survival time, dose: 25.0 mg/kg/injection, schedule: Q01DX009 (ip), vehicle: saline with Tween-80
  T/C: 101 % of control
[1]
  T/C: 108 % of control
[3]
  T/C: 88 % of control

## O=C(O)CCCCCNCC(CNCCCCCC(=O)O)(C(=O)O)C(=O)O
[7]
  T/C: 104 % of control
[8]
  T/C: 96 % of control
[9]
  T/C: 111 % of control

## CC(=O)Nc1nc(CCCCc2ccccc2)cc(=O)[nH]1
endpoint: mean survival time, dose: 37.5 mg/kg/injection, schedule: Q01DX001 (ip), vehicle: saline with Tween-80
  T/C: 100 % of control
endpoint: mean survival time, dose: 75.0 mg/kg/injection, schedule: Q01DX001 (ip), vehicle: saline with Tween-80
  T/C: 96 % of control
endpoint: mean survival time, dose: 150.0 mg/kg/injection, schedule: Q01DX001 (ip), vehicle: saline with Tween-80
  T/C: 94 % of control

## CC/C=N/NC(N)=S
endpoint: mean survival time, dose: 5.0 mg/kg/injection, schedule: Q01DX001 (ip), vehicle: saline
  T/C: 98 % of control
endpoint: mean survival time, dose: 10.0 mg/kg/injection, schedule: Q01DX001 (ip), vehicle: saline
  T/C: 102 % of control
endpoint: mean survival time, dose: 20.0 mg/kg/injection, schedule: Q01DX001 (ip), vehicle: saline
  T/C: 106 % of control

## C/C=C/C(OC(C)=O)OC(C)=O
[2]
  T/C: 97 % of control
[6]
  T/C: 103 % of control

## C/C=C/C[P+](Cc1ccccc1)(c1ccccc1)c1ccccc1
endpoint: mean survival time, dose: 0.39 mg/kg/injection, schedule: Q01DX009 (ip), vehicle: saline
  T/C: 97 % of control
endpoint: mean survival time, dose: 0.78 mg/kg/injection, schedule: Q01DX009 (ip), vehicle: saline
  T/C: 96 % of control
endpoint: mean survival time, dose: 1.56 mg/kg/injection, schedule: Q01DX009 (ip), vehicle: saline
  T/C: 102 % of control
endpoint: mean survival time, dose: 3.13 mg/kg/injection, schedule: Q01DX009 (ip), vehicle: saline
  T/C: 103 % of control

## CCNC(C)(C)C(SSSC(c1ccc(C(F)(F)F)cc1)C(C)(C)NCC)c1ccc(C(F)(F)F)cc1 (centres undefined)
endpoint: mean survival time, dose: 100.0 mg/kg/injection, schedule: Q01DX009 (ip), vehicle: saline
  T/C: 90 % of control
